This note sets out measurements from ChEMBL document CHEMBL1136033, “Effects of the incorporation of IBTM beta-turn mimetics into the dipeptoid CCK(1) receptor agonist PD 170292” (Bioorg Med Chem Lett, 2002).

By IC50 is commonly meant the concentration needed to halve the response being measured. Low readings indicate greater potency, high ones weaker potency.

In assay [1] the target is T1, Gastrin/cholecystokinin type B receptor (Rattus norvegicus, UniProt P30553).
T1 sequence (P30553 whole entry): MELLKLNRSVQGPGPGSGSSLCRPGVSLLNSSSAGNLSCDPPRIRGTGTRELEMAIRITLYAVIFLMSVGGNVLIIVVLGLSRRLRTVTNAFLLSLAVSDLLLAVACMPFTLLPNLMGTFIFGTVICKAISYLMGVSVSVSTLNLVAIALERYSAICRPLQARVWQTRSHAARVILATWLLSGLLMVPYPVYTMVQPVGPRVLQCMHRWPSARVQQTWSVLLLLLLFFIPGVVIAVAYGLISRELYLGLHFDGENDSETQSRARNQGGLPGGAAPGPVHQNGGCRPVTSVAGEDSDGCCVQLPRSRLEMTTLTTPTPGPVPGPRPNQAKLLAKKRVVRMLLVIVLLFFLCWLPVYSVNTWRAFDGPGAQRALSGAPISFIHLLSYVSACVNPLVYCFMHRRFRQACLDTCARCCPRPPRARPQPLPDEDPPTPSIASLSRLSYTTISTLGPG
Kind of assay: Inhibition of [3H]propionyl-CCK-8 specific binding to rat cerebral cortex membranes Cholecystokinin type B receptor. Format: cell membranes, Membrane.

Assay [2] is described as follows: The compound was tested to antagonize the CCK-8 induced amylase secretion from pancreatic acini. Format: functional.
Assay [3] has as its target T2, Cholecystokinin receptor type A (Rattus norvegicus, UniProt P30551).
T2 sequence (P30551 whole entry): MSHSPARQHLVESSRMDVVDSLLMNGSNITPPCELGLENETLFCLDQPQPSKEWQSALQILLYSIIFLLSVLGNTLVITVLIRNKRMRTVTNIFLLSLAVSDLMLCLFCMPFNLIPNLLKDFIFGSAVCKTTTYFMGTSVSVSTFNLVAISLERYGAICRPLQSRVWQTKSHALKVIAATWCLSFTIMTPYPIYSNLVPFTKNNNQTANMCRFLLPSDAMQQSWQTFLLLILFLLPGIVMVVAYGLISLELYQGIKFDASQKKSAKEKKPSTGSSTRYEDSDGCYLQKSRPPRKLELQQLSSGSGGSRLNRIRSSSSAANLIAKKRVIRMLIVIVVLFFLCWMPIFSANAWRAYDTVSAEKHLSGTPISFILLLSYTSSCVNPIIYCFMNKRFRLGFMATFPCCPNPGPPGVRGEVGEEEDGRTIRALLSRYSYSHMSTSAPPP
The assay can be described thus: Inhibition of [3H]propionyl-CCK-8 specific binding to rat pancreatic Cholecystokinin type A receptor.

Bounds are passed on as bounds.

In the case of `O=C(N[C@H]1C[C@@H]2c3[nH]c4ccccc4c3C[C@@H](C(=O)N[C@@H](Cc3ccccc3)C(=O)O)N2C1=O)OCc1ccccc1`, the concentration for half-maximal inhibition (IC50) in assay [1] was > 10 µM. Regarding `Cc1ccccc1NC(=O)NCCCC[C@@H](CC(=O)O)NC(=O)[C@H]1Cc2c([nH]c3ccccc23)[C@@H]2C[C@@H](NC(=O)OCc3ccccc3)C(=O)N12`, the IC50 in assay [2] was 0.196 µM; in assay [3], 0.0082 µM; in assay [1], 5.8 µM. As to `Cc1ccccc1NC(=O)NCCCC[C@@H](CC(=O)O)NC(=O)[C@@H]1Cc2c([nH]c3ccccc23)[C@H]2C[C@H](NC(=O)OCc3ccccc3)C(=O)N21`, the half-inhibitory concentration (IC50) in assay [3] is 0.324 µM; in assay [1] it was > 10 µM. On to `Cc1ccccc1NC(=O)NCCCC[C@@H](CC(=O)O)NC(=O)[C@@](C)(Cc1c[nH]c2ccccc12)NC(=O)OC1C2CC3CC(C2)CC1C3` (some centres not stated) [PD-170292], for which the half-maximal inhibitory concentration (IC50) in assay [1] was found to be 0.0067 µM.
